Source: US20170157228A1, “Immunogenic Polypeptide Composed of HLA-B7 Restricted Tumor Antigen-Derived Optimized Cryptic Peptides, and Uses Thereof” (VAXON BIOTECH, priority 2014, published 2017)
Entries after “also recorded” stand apart in the source; their conditions may differ.

Legend:
[1] = test system: HLA-B*0702 transgenic mice; experiment: CTL induction in vivo in HLA-B*0702 transgenic mice, ex vivo IFNγ ELISpot of spleen T cells; conditions: for result versus the inverted dipeptide sequence, in terms of number of responding mice: dipeptide vaccination twice at 2 weeks interval, response against optimized and cognate native peptides; for mice responding to at least one native peptide / recognition of each native peptide in vaccinated mice: after two vaccinations with the polypeptide
Protocol: Transgenic Mice. The HLA-B7 H-2 class-I knockout mice were previously described (Rohrlich et al, 2003) and kindly provided by F. Lemonnier (Institut Pasteur, Paris, France).
CTL Induction in vivo in HLA-B*0702 Transgenic Mice. HLA-B*0702 transgenic mice were vaccinated subcutaneously at the base of the tail with 200 μg of optimized dipeptides or 400 μg of Vbx-016 in association with the HV core T13L helper (150 μg) helper peptide and emulsified in Incomplete Freund Adjuvant (IFA) or Montanide ISA51VG (Seppic, Castres, France) twice at two weeks interval.
Seven days after the last vaccination, spleens were removed and T cells were isolated by Ficoll centrifugation and tested ex vivo for the recognition of 10 μM of either the native or optimized peptides. Positive control was Concanavalin A and negative control was medium alone. All conditions were tested in quadriplicates. IFNγ producing T cells was quantified by ELISpot using the Diaclone Kit Murine IFNγ ELISpot.
An immune response was considered positive when there was 1) more than 10 spots difference/10^6 cells between the negative control and the tested peptide and 2) a statistically significant difference between these two groups with T Test (p<0.05).
Each dipeptide was used to vaccinate HLA-B*0702 transgenic mice twice at 2 weeks interval and tested for its capacity to induce an immune response against both optimized peptides and their cognate native counterparts. Dipeptides are described in table 2. In each experiment, the best combination is highlighted in grey.
To evaluate if the Vbx-016 (SEQ ID No: 23) determined in the dipeptidic experiments is optimum, HLA-B*0702 transgenic mice were vaccinated subcutaneously at the base of the tail with 400 μg of Vbx-016 and 150 μg of the HBV core T13L helper peptide emulsified in Incomplete Freund Adjuvant (IFA) or Montanide ISA51VG (Seppic, Castres, France) twice at two weeks interval.

[2] = test system: human PBMC from healthy HLA-B*0702 donors; experiment: Generation of CTL from human PBMC, IFNγ ELISpot with peptide-loaded T2-B7 cells; type: cell-based; conditions: for processing of the dipeptide and recognition of optimized and cognate native peptides by induced CTLs: PBMC culture from healthy human donor stimulated with dipeptide; for CTL immune response induced by the polypeptide: PBMC culture from HLA-B*0702 healthy donor
Protocol: Cells. HLA-B*0702 transfected human T2-B7 cells were previously described (Rohrlich et al, 2003). Cells were grown in penicillin streptomycin FCS 20% supplemented RPMI1640 culture medium.
Generation of CTL from human PBMC. PBMC were collected by leukapheresis from healthy HLA-B*0702 volunteers. Dendritic cells (DC) were produced from adherent cells cultured for seven days with 500 IU/ml GM-CSF and 500 IU/ml IL-4, in complete synthetic medium (AIMV). On day 6, DCs were pulsed with 10 μM of polypeptides overnight. On day 7, CD8+ cells were purified by negative selection with CD8 Dynabeads Untouched Human CD8. CD8+ cells (2×10^5)+CD8− cells (6×10^4) were stimulated with 3×10^4 peptide-pulsed DC in AIMV medium supplemented with 1000 IU/ml IL-6 and 5 IU/ml IL-12, 1 μg/ml anti-CD40 and 500 IU/ml IFNγ in round-bottomed 96-well plates.
From day 7, cultures were restimulated weekly with peptide-loaded DC in the presence of 20 IU/ml IL-2 and 10 ng/ml IL-7, 1 μg/ml anti-CD40 and 500 IU/ml IFNγ.
After the third restimulation, CD8 cells were maintained in AIMV supplemented with 20 IU/ml IL-2 during 7 days. Cultures were starved during one night with AIMV and then were tested in an IFNγ ELISpot assay.
IFNγ ELISpot Assay. For one culture of 96 wells, four pools of 24 wells were collected, CD8 cells were counted and 50 000 CD8 per well were dispatched on the ELISpot plate with 25 000 T2B7 loaded eiher with 10 μM of each native monopeptide or with 10 μM of modified monopeptides composing the polypeptide. Eight replicates of each condition were performed. Positive control was Phytohaemagglutinin A and negative control was T2B7 loaded with an irrelevant peptide not able to bind HLA-B7 molecules.
To evaluate if the junction present in the polypeptide CEA188L9/TERT444A1/MAGE273L9/HER-2/neu246A1 validated in transgenic mice are processed efficiently in humans, human PBMC were stimulated with each dipeptide (CEA188L9/TERT444A1, TERT444A1/MAGE273L9 and MAGE273L9/HER-2/neu246A1) according to the protocol described in the methods. Recognition of the cognate native peptides was evaluated by measuring specific IFNγ producing cells from the CD8+ stimulated by the dipeptide, divided in 4 pools for the test.

SPRLQLSNLAPRRLVQLL (7C1T5M)
result versus the inverted dipeptide sequence, in terms of number of responding mice [1]: better results than the corresponding inverted sequences; also recorded: better results than the inverted sequence | processing of the dipeptide and recognition of optimized and cognate native peptides by induced CTLs [2]: efficiently processed in vitro in humans

SPRLQLSNLAPRRLVQLLGPRALVETLAPKHSDCLA [Vbx-016, polypeptide of four optimized cryptic peptides targeting TERT, HER-2/neu, MAGE and CEA for HLA-B7 patients]
mice responding to at least one native peptide [1]: all mice respond to at least one native peptide | recognition of each native peptide in vaccinated mice [1]: each native peptide was recognized at least once in one vaccinated mouse | mice responding to at least one native peptide ([1]; listed as SEQ ID No: 23): all mice responded to at least one native peptide | recognition of each native peptide in vaccinated mice ([1]; listed as SEQ ID No: 23): all the native peptides were recognized at least once in one vaccinated mouse | Number of responding mice/total number of mice ([1]; recognition of CEA188, Helper + adjuvant (IFA or montanide), pooled): 13/14 | Number of responding mice/total number of mice ([1]; recognition of CEA188, Vbx016 + helper + IFA, two vaccinations, T-test <0.05): 8/9 | Number of responding mice/total number of mice ([1]; recognition of CEA188, Vbx016 + helper + Montanide, two vaccinations, T-test <0.05): 5/5 | Number of responding mice/total number of mice ([1]; recognition of CEA188L9, Helper + adjuvant (IFA or montanide), pooled): 13/14 | Number of responding mice/total number of mice ([1]; recognition of CEA188L9, Vbx016 + helper + IFA): 8/9 | Number of responding mice/total number of mice ([1]; recognition of CEA188L9, Vbx016 + helper + Montanide): 5/5 | Number of responding mice/total number of mice ([1]; recognition of HER-2Neu246, Helper + adjuvant (IFA or montanide), pooled): 1/14 | Number of responding mice/total number of mice ([1]; recognition of HER-2Neu246, Vbx016 + helper + IFA): 1/9 | Number of responding mice/total number of mice ([1]; recognition of HER-2Neu246, Vbx016 + helper + Montanide): 0/5 | Number of responding mice/total number of mice ([1]; recognition of HER-2Neu246A1, Helper + adjuvant (IFA or montanide), pooled): 2/14 | Number of responding mice/total number of mice ([1]; recognition of HER-2Neu246A1, Vbx016 + helper + IFA): 2/9 | Number of responding mice/total number of mice ([1]; recognition of HER-2Neu246A1, Vbx016 + helper + Montanide): 0/5 | Number of responding mice/total number of mice ([1]; recognition of MageA273A6, Helper + adjuvant (IFA or montanide), pooled): 2/14 | Number of responding mice/total number of mice ([1]; recognition of MageA273A6, Vbx016 + helper + IFA): 2/9 | Number of responding mice/total number of mice ([1]; recognition of MageA273A6, Vbx016 + helper + Montanide): 0/5 | Number of responding mice/total number of mice ([1]; recognition of MageA273I6, Helper + adjuvant (IFA or montanide), pooled): 3/14 | Number of responding mice/total number of mice ([1]; recognition of MageA273I6, Vbx016 + helper + IFA): 1/9 | Number of responding mice/total number of mice ([1]; recognition of MageA273I6, Vbx016 + helper + Montanide): 2/5 | Number of responding mice/total number of mice ([1]; recognition of MageA273L9, Helper + adjuvant (IFA or montanide), pooled): 12/14 | Number of responding mice/total number of mice ([1]; recognition of MageA273L9, Vbx016 + helper + IFA): 7/9 | Number of responding mice/total number of mice ([1]; recognition of MageA273L9, Vbx016 + helper + Montanide): 5/5 | Number of responding mice/total number of mice ([1]; recognition of MageA273V6, Helper + adjuvant (IFA or montanide), pooled): 2/14 | Number of responding mice/total number of mice ([1]; recognition of MageA273V6, Vbx016 + helper + IFA): 1/9 | Number of responding mice/total number of mice ([1]; recognition of MageA273V6, Vbx016 + helper + Montanide): 1/5 | Number of responding mice/total number of mice ([1]; recognition of Tert444, Helper + adjuvant (IFA or montanide), pooled): 12/14 | Number of responding mice/total number of mice ([1]; recognition of Tert444, Vbx016 + helper + IFA): 8/9 | Number of responding mice/total number of mice ([1]; recognition of Tert444, Vbx016 + helper + Montanide): 4/5 | Number of responding mice/total number of mice ([1]; recognition of Tert444A1, Helper + adjuvant (IFA or montanide), pooled): 14/14 | Number of responding mice/total number of mice ([1]; recognition of Tert444A1, Vbx016 + helper + IFA): 9/9 | Number of responding mice/total number of mice ([1]; recognition of Tert444A1, Vbx016 + helper + Montanide): 5/5 | Number of responding mice/total number of mice ([1]; recognition of Vbx-016, Helper + adjuvant (IFA or montanide), pooled): 14/14 | Number of responding mice/total number of mice ([1]; recognition of Vbx-016, Vbx016 + helper + IFA): 9/9 | Number of responding mice/total number of mice ([1]; recognition of Vbx-016, Vbx016 + helper + Montanide): 4/4 | Number of responding mice/total number of mice ([1]; response to two or more native epitopes, Helper + adjuvant (IFA or montanide), pooled, listed as SEQ ID No: 23): a large majority of vaccinated mice responded to two or more cognate native peptides | Number of responding mice/total number of mice ([1]; response to two or more native epitopes, Vbx016 + helper + IFA): 8/9 | Number of responding mice/total number of mice ([1]; response to two or more native epitopes, Vbx016 + helper + Montanide): 5/5 | Number of responding mice/total number of mice ([1]; response to two or more native epitopes, column Helper + adjuvant (IFA or montanide), pooled): 13/14 | Number of responding mice/total number of mice ([1]; response to two or more native epitopes, column Helper + adjuvant (IFA or montanide), pooled, listed as Vbx016): 13/14 | CTL immune response induced by the polypeptide [2]: A polyspecific response was induced and several native peptides were recognized by the induced CTLs | CTL immune response induced by the polypeptide ([2]; listed as SEQ ID No: 23): polyspecific CTLs immune response; also recorded: several native peptides were recognized; also recorded: induces a specific CD8^+ T cells response against at least one and usually two or more peptides

APRRLVQLLGPRALVETL (7T5M1M)
result versus the inverted dipeptide sequence, in terms of number of responding mice [1]: better results than the corresponding inverted sequences; also recorded: better results than the inverted sequence | processing of the dipeptide and recognition of optimized and cognate native peptides by induced CTLs [2]: efficiently processed in vitro in humans

APRRLVQLLAPKHSDCLA (7T5HN3M)
result versus the inverted dipeptide sequence, in terms of number of responding mice [1]: better results than the corresponding inverted sequences; also recorded: better results than the inverted sequence

SPRLQLSNLGPRALVETL (7C1M1M)
result versus the inverted dipeptide sequence, in terms of number of responding mice [1]: the same results

GPRALVETLAPKHSDCLA (7M1HN3M)
result versus the inverted dipeptide sequence, in terms of number of responding mice [1]: better results than the corresponding inverted sequences; also recorded: better results than the inverted sequence | processing of the dipeptide and recognition of optimized and cognate native peptides by induced CTLs [2]: efficiently processed in vitro in humans

GPRALVETLSPRLQLSNL (7M1C1M)
result versus the inverted dipeptide sequence, in terms of number of responding mice [1]: the same results

SPRLQLSNLAPKHSDCLA (7C1HN3M)
result versus the inverted dipeptide sequence, in terms of number of responding mice [1]: better results than the corresponding inverted sequences; also recorded: better results than the inverted sequence
